The subject of data set [1] is tissue noradrenaline and dopamine content. As to the kind of experiment: Tissue catecholamines in beagle dogs dosed b.i.d. for 5 days. It is filed as in vivo. To be noted: for maximal increase in DA/NE ratio: 5 mg/kg b.i.d.; for decrease in noradrenaline / increase in dopamine: 5 mg/kg b.i.d. po. The method, then: Male beagle dogs (10-16 kg, Marshall Farms USA Inc, North Rose, N.Y., USA) were also used in in vivo studies. On the day of the study, dogs were weighed and randomly assigned to be orally dosed with either empty capsules (control) or the appropriate dose of nepicastat (0.05, 0.5, 1.5 or 5 mg·kg^−1; po, b.i.d.) for 5 days. At six hours following the first dose on day-5, the dogs were euthanized with pentobarbital and the tissues (cerebral cortex, renal artery, left ventricle) were rapidly harvested. The tissues were subsequently processed and analyzed for noradrenaline and dopamine.
Nepicastat was used in in vivo biochemical studies to study the effects in spontaneously hypertensive rats (SHRs) and normal beagle dogs. On the day of the study, the animals were weighed and randomly assigned to receive either placebo (vehicle) or the appropriate dose of nepicastat. Each rat was dosed orally three times, 12 h apart, beginning in the morning. At 6 h after the third dose, the rats were anesthetized with halothane, decapitated, and the tissues (cerebral cortex, mesenteric artery and left ventricle) were rapidly harvested, weighed, placed in iced 0.4 M perchloric acid, frozen in liquid nitrogen and stored at −70° C. until analysis. Tissue NE and DA concentrations were assayed by HPLC using electrochemical detection. Male beagle dogs (10-16 kg, Marshall Farms USA Inc, North Rose, N.Y.) were used in the study. On the day of the study, dogs were randomly assigned to receive either placebo (empty capsule) or the appropriate dose of nepicastat. Each dog was dosed twice a day for 4.5 days. 6 h after the first dose on day 5, the dogs were euthanized with pentobarbital and the tissues (cerebral cortex. renal artery, left ventricle) harvested, weighed, placed in iced 0.4 M perchloric acid, frozen in liquid nitrogen and stored at −70° C. until analysis. Tissue NE and DA concentrations were assayed by HPLC using electrochemical detection.

A short description of data set [2]: Pilot observation studies in rats, acute and repeated oral administration.
Method: Similarly, in a separate study, physostigmine (1, 3, 10 or 30 mg/kg p.o.) or vehicle were administered acutely to groups of 8 rats.
In pilot studies of repeated administration, nepicastat (100 mg/kg p.o.) or vehicle was administered twice daily (06:00 and 18:00 h) for 10 days (once on day 11) to groups of 8 rats. The weights of the animals were monitored throughout the study and, on day 5, the animals were observed ‘blind’ by an independent observer in order to assess any overt behavioural/physiological effects following repeated administration. In a separate study, groups of 8 rats received vehicle or physostigmine (0.3, 1, 3 or 10 mg/kg p.o.) using the same dosing schedule. The weights of the animals were monitored throughout the study.
For data set [3], the target named is alpha1 receptors. As to the kind of experiment: Radioligand filtration binding (Example 19). The method, then: (§1) The affinity of nepicastat was determined in the bindings assays outlined using standard radioligand filtration binding methods were used. Competition binding data were analyzed by iterative curve fitting to a four parameter logistic equation. Hill coefficients and IC50 were obtained directly. pKi (−log of Ki) of competing ligands were calculated from IC50 values using the Cheng-Prusoff equation.

Data set [4] concerns the target all other receptors examined. As to the kind of experiment: Radioligand filtration binding (Example 19). The method, then:
as §1

Data set [5] has as its system spontaneous hypertensive rats. As to the kind of experiment: SCH-23390 pretreatment study in restrained SHRs. In kind it is in vivo. The conditions noted are these: nepicastat 10 mg/kg po. An excerpt: Male, spontaneous hypertensive rats (280-345 g; Charles River Labs, Kingston, N.Y.) were fasted overnight then anesthetized with ether. A femoral artery and femoral vein were cannulated with PE50 tubing for recording of blood pressure and administration of compounds, respectively. Animals were then placed in MAYO restrainers and their feet loosely taped to the restrainer. Heparinized saline (50 units sodium heparin/ml) was used to maintain patency of each cannula throughout the experiment. The following parameters were continuously recorded using Modular Instruments MI^2 BioReport™ software installed on an IBM personal computer: mean arterial pressure (MAP), heart rate (HR), and the change from baseline for each parameter at specified time points in the experiment.
All compounds were dissolved on the day of use. Nepicastat was dissolved in deionized water (vehicle) to a free base concentration of 1 mg/ml. Oral dosing volume for nepicastat or vehicle was 10 ml/kg. SCH-23390 was dissolved in saline (vehicle) to a free base concentration of 0.2 mg/ml. […] or saline were administered intravenously as a bolus in a volume of 1.0 ml/kg followed by 0.2 ml flush of isotonic saline.
Following surgical preparation, each animal was allowed a minimum one hour recovery period. Animals were randomly assigned to four treatment groups: vehicle (iv)/vehicle (po); vehicle (iv)/nepicastat (po); SCH-23390 (iv)/vehicle (po); or SCH-23390 (iv)/nepicastat (po). Once animals were stabilized (minimum one hour), baseline blood pressure and heart rate was determined by taking an average of each parameter over a 15 min period of time. Once baseline blood pressure and heart rate were established, animals were dosed intravenously with either SCH-23390 (200 μg/kg) or vehicle (saline, 1 ml/kg). Fifteen minutes later, animals were orally dosed with either nepicastat (10 mg/kg) or vehicle (deionized water, 10 ml/kg).
Recorded parameters were measured 15 min prior to intravenous dosing to establish baseline blood pressure and heart rate. Recorded parameters were then measured at 5, 10, and 15 min following intravenous administration of SCH-23390 or vehicle. Following oral administration of nepicastat or vehicle, recorded parameters were measured at 15, 30, 60, 90, 120, 150, 180, 210, and 240 min.
At the end of the experiment, each animal was anesthetized with halothane and euthanized via decapitation. The cortex, left ventricle (apex), and mesenteric artery were dissected out, weighed, and fixed in 0.4 M perchloric acid. Tissues were then frozen in liquid nitrogen and stored at −70° C. Biochemical analysis are performed on these tissues at a later date to determine catecholamine levels including dopamine and norepinephrine levels. Blood pressure and heart rate were analyzed separately. The change from baseline for blood pressure and heart rate were analyzed by an analysis of variance (ANOVA) with effects for treatment, time, and their interaction. This analysis was performed both for the post-iv time period and for the post-oral time period. Further analyses were performed at each time by an ANOVA with a main effect for […]. Pairwise comparisons were performed following each ANOVA by Fisher's LSD strategy with a Bonferroni correction when the overall treatment effect was not significant.
An additional analysis was performed to compare the baseline means of each treatment group by an ANOVA with a main effect for treatment and subsequent pairwise comparisons. […]

The nature of data set [6]: Safety and tolerability in squirrel monkeys. It is filed as in vivo. The method, then:
Six squirrel monkeys, three non-lesioned and three lesioned (received 2 mg/kg MPTP 3 months prior), were used to study safety and tolerability of nepicastat. Animals received nepicastat at a concentration of 0.5, 2.0, or 5.0 mg/kg twice daily, (10 am and 2 pm), for 5 days with a two-day washout between the different dose levels. Nepicastat was administered via oral syringe at the 0.5, 2.0 […] mg/kg doses and as oral gavage at the 5.0 mg/kg dose.

Broadly, the pKi is −log10 of the Ki, conventionally taken in molar units.

Each structure is given as a SMILES string. “Also recorded” adds a separate entry of the source. Where only a bound is given, the exact number is not on record here.

Take `Cl.NCc1c[nH]c(=S)n1[C@H]1CCc2c(F)cc(F)cc2C1` [nepicastat, (S)-5-Aminomethyl-1-(5,7-difluoro-1,2,3,4-tetrahydronaphth-2-yl)-2,3-dihydro-2-thioxo-1H-imidazole hydrochloride]: in data set [1] (cerebral cortex), the “maximal increase in DA/NE ratio” value is listed as 80 fold, the decrease in noradrenaline is given as 96% and the increase in dopamine amounted to 166%. For the same compound, in data set [1] (left ventricle), the “maximal increase in DA/NE ratio” value is 151 fold, the decrease in noradrenaline was 91% and the increase in dopamine was 700%. In data set [1] (renal artery), the “maximal increase in DA/NE ratio” value was 95 fold, the decrease in noradrenaline is reported as 88% and the increase in dopamine turned out to be 627%. The “doses at which catecholamine changes attained significance (p<0.05)” value in data set [1] (renal artery, left ventricle, cerebral cortex) was at least 0.1 mg/kg/day. The “overt effects of repeated administration” value in data set [2] (nepicastat 100 mg/kg p.o. twice daily) is listed as “no overt effects”. For the same compound, the irritability when handled entry in data set [2] (nepicastat 100 mg/kg p.o. twice daily, 11 days) is reported as “more irritable than controls”. The “mean loss in body weight” value in data set [2] (nepicastat 100 mg/kg p.o. twice daily, after 11 days) is 28 g. Further, the overt behavioural/physiological changes entry in data set [2] (nepicastat 30 or 100 mg/kg p.o. acutely) was “did not induce any overt behavioural/physiological changes”. The negative-log Ki (pKi) in data set [3] was 6.9-6.7. Also, the pKi in data set [4] is listed as under 6.2. Besides, the “heart rate vs vehicle” value in data set [5] (SCH-23390 200 μg/kg iv) is “did not decrease the heart rate as much as observed in vehicle treated animals”. In data set [5], the mean arterial pressure entry was “significant decrease (p<0.05) in mean arterial pressure” and the “time post dose by which MAP decrease was significant” value is recorded as at most 30 min. Besides, in data set [5] (SCH-23390 iv, hydrochloride), the “antihypertensive effect of nepicastat after pretreatment with SCH-23390” value is on record as “not attenuated; also recorded: did not significantly attenuate”. The “adverse finding in one non-lesioned monkey” value in data set [6] (5.0 mg/kg twice daily, final two days) is on record as “light beige colored loose stools”. Moreover, the tolerability entry in data set [6] (0.5 and 2.0 mg/kg twice daily, 5 days) was “well tolerated at the two lower doses”.

The record behind these values is patent US10561638B2, “Methods for treating dependence” (Biotie Therapies, Inc., priority 2007, dated 2020).
